Assay results as given in US20240174663A1, “PYRIMIDINE OR PYRIDINE DERIVATIVES USEFUL AS HCN2 MODULATORS” (King's College London, priority 2021, published 2024).
Counter-ions that a name gives are not always drawn.

What was measured:
HCN2 = molecular target: T1, HCN2 (Homo sapiens, UniProt Q9UL51); test: HCN2 assay using PatchXpress 7000A (PX protocol, Example 25); assay type: cell-based; settings: room temperature
T1 sequence (Q9UL51 1-889): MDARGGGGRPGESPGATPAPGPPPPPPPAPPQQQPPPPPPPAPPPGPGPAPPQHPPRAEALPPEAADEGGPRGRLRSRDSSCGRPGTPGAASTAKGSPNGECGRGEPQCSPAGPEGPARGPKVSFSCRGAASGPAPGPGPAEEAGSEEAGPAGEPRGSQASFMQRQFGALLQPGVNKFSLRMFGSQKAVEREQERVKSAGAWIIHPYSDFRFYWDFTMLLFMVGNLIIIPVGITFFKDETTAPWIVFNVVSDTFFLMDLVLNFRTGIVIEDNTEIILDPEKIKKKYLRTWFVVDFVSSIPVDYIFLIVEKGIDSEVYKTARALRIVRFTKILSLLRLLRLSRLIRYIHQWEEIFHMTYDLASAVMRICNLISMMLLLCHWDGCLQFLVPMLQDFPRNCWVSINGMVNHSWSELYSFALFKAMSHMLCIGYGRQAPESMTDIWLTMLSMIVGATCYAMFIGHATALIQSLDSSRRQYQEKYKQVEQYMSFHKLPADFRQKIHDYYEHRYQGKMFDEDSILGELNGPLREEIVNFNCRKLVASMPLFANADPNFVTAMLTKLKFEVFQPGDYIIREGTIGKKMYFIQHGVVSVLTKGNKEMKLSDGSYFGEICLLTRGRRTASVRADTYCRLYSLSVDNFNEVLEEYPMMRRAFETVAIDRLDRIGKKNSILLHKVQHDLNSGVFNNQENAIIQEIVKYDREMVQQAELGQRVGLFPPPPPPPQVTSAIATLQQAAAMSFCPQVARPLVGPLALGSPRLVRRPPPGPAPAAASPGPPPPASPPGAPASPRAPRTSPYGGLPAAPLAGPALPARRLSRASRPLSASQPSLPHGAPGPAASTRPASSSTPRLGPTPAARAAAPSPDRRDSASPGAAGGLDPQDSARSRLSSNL
Experimental: (§1) Example 25: Assay for HCN1 HCN2 and HCN4 Using PatchXpress 7000A
(§2) Solutions for recording HCN currents were:
The membrane voltage was then stepped back to −30 mV for a further 8 seconds.
(§3) The peak inward current measured at the end of the pulse to −110 mV (HCN1 and HCN2) or −130 mV (HCN4) was measured and any leak current subtracted to calculate the HCN current. The HCN current amplitude was measured after each control or compound addition and normalized to the control amplitude (Control A).
(§4) All experiments were performed at room temperature (approximately 22° C.).
(§5) Each test compound concentration was applied to the cell for seven (7) minutes, at which point the next cumulative concentration was applied.

HCN4 = molecular target: T2, HCN4 (Homo sapiens, UniProt Q9Y3Q4); test: HCN4 assay using PatchXpress 7000A (PX protocol, Example 25); assay type: cell-based; settings: room temperature
T2 sequence (Q9Y3Q4 1-1203): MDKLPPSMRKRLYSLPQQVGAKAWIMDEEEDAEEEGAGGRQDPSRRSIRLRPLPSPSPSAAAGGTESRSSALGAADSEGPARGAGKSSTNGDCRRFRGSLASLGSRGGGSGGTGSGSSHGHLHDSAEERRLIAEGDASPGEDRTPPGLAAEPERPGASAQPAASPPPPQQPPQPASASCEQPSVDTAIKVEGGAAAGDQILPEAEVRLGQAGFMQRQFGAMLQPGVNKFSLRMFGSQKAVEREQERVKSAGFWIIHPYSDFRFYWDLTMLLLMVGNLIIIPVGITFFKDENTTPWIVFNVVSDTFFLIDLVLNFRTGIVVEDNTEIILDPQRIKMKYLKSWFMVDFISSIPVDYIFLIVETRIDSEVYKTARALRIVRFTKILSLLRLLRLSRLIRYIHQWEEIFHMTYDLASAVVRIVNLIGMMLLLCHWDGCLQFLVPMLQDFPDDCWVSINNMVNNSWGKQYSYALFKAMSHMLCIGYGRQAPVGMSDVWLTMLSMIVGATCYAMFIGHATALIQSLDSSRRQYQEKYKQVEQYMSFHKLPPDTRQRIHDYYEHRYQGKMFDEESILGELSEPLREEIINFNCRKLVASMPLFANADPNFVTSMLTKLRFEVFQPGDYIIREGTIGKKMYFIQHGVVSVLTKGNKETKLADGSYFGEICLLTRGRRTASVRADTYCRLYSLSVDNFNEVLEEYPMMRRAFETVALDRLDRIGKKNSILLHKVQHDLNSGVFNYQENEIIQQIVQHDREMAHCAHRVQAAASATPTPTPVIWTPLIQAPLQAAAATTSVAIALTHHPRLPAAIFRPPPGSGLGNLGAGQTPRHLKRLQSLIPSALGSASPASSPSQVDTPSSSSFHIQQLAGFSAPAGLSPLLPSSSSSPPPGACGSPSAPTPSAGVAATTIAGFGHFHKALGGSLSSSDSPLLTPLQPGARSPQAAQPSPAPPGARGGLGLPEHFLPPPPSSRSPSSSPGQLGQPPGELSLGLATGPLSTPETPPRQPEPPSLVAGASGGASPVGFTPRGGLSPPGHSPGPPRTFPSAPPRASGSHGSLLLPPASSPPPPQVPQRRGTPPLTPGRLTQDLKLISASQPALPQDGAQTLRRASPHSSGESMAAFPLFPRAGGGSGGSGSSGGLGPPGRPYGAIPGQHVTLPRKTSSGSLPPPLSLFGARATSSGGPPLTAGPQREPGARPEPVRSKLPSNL
Experimental: as §1, §2, §3, §4, §5

| Compound | IC50 (HCN2) | IC50 (HCN4) |
| --- | --- | --- |
| Cn1nc(-c2ccccc2[C@@H](N)Cc2ccccn2)c2cccnc21 [Example 1, (S)-1-[2-(1-Methyl-1H-pyrazolo[3,4-b]pyridine-3-yl)phenyl]-2-(pyridin-2-yl)ethan-1-amine hydrochloride] | 16.8 µM |  |
| N[C@@H](Cc1ccccn1)c1ccccc1-c1noc2ncccc12 [Example 2, (S)-1-[2-(Isoxazolo[5,4-b]pyridine-3-yl)phenyl]-2-(pyridin-2-yl)ethan-1-amine] | 10.2 µM |  |
| Cn1nc(-c2cccnc2[C@@H](N)Cc2ccccn2)c2ccccc21 [Example 3, (S)-1-[3-(1-Methyl-1H-indazol-3-yl)pyridine-2-yl]-2-(pyridin-2-yl)ethan-1-amine hydrochloride] | 5.7 µM | > 30 µM |
| N[C@@H](Cc1ccccn1)c1cccnc1-c1noc2ccccc12 [Example 5, (S)-1-[2-(Benzoy[d]isoxazol-3-yl)pyridine-3-yl}-2-(pyridine-2-yl)ethan-1-amine hydrochloride] | 19 µM |  |
| N[C@@H](Cc1ccccn1)c1ncccc1-c1noc2ccccc12 [Example 6, (S)-1-[3-(Benzoy[d]isoxazol-3-yl)pyridine-2-yl}-2-(pyridine-2-yl)ethan-1-amine hydrochloride] | 2.2 µM | > 30 µM |
| N[C@@H](Cc1ccccn1)c1ccncc1-c1noc2ccccc12 [Example 7, (S)-1-[3-(Benzoy[d]isoxazol-3-yl)pyridine-4-yl}-2-(pyridine-2-yl)ethan-1-amine hydrochloride] | 13.8 µM |  |
| Cn1nc(-c2ccccc2[C@@H](N)Cc2ccccn2)c2ccncc21 [Example 8, (S)-1-[2-(1-Methyl-1H-pyrazolo[3,4-c]pyridine-3-yl)phenyl]-2-(pyridine-2-yl)ethan-1-amine hydrochloride] | 7.9 µM | > 30 µM |
| Cc1ccc(-c2noc3ccccc23)c([C@@H](N)Cc2ccccn2)n1 [Example 9, (S)-1-[3-(Benzoy[d]isoxazol-3-yl)-6-methylpyridine-2-yl]-2-(pyridine-2-yl)ethan-1-amine hydrochloride] | 3.2 µM | > 30 µM |
| N#Cc1cccc(C[C@H](N)c2ncccc2-c2noc3ccccc23)n1 [Example 10, (S)-6-{2-Amino-2-[3-(benzoy[d]isoxazol-3-yl)pyridine-2-yl]ethyl}pyridine-2-carbonitrile hydrochloride] | 1.9 µM | 16.7 µM |
| Cc1cccc(C[C@H](N)c2ncccc2-c2noc3ccccc23)n1 [Example 11, (S)-1-[3-(Benzoy[d]isoxazol-3-yl)pyridine-2-yl]-2-(6-methylpyridine-2-yl)ethan-1-amine hydrochloride] | 5.1 µM | 22.9 µM |

The next lines start with the values.

| IC50 (HCN2) | IC50 (HCN4) | Compound |
| --- | --- | --- |
| 4.5 µM |  | CC(c1ccccn1)[C@H](N)c1ncccc1-c1noc2ccccc12 (single isomer, unassigned) [Example 12, hydrochloride] |
| 9.6 µM |  | CC(c1ccccn1)[C@H](N)c1ncccc1-c1noc2ccccc12 (single isomer, unassigned) [Example 13, hydrochloride] |
| 12.3 µM |  | N[C@@H](Cc1ccccn1)c1ccccc1-c1noc2cnccc12 [Example 14, (S)-1-[2-(Isoxazolo[5,4-c]pyridine-3-yl)phenyl]-2-(pyridin-2-yl)ethan-1-amine] |
| 7.7 µM | > 30 µM | Cc1cccc(C[C@H](N)c2ccccc2-c2nn(C)c3cnccc23)n1 [Example 15, (S)-1-[2-(1-Methyl-1H-pyrazolo[3,4-c]pyridine-3-yl)phenyl]-2-(6-methylpyridine-2-yl)ethan-1-amine hydrochloride] |
| 6.8 µM | > 30 µM | Cn1nc(-c2ccccc2[C@@H](N)Cc2cccc(C#N)n2)c2ccncc21 [Example 16, (S)-6-{2-Amino-2-[2-(1-methyl-1H-pyrazolo[3,4-c]pyridine-3-yl)phenyl]ethyl}pyridine-2-carbonitrile] |
| 6.4 µM | > 30 µM | NC(=O)c1cccc(C[C@H](N)c2ncccc2-c2noc3ccccc23)n1 [Example 17, (S)-6-{2-Amino-2-[3-(benzoy[d]isoxazol-3-yl)pyridine-2-yl]ethyl}pyridine-2-carboxamide] |
| 11.2 µM | > 30 µM | CN(C)C(=O)c1cccc(C[C@H](N)c2ncccc2-c2noc3ccccc23)n1 [Example 18, (S)-6-{2-Amino-2-[3-(benzoy[d]isoxazol-3-yl)pyridine-2-yl]ethyl}-N,N-dimethylpyridine-2-carboxamide] |
| 4 µM | > 30 µM | N[C@@H](Cc1cccc(OCCO)n1)c1ncccc1-c1noc2ccccc12 [Example 19, (S)-2-[(6-{2-Amino-2-[3-(benzoy[d]isoxazol-3-yl)pyridine-2-yl]ethyl}pyridine-2-yl)oxy]ethano-1-ol] |
| 9 µM | > 30 µM | N[C@@H](Cc1ncccn1)c1ncccc1-c1noc2ccccc12 [Example 20, (S)-1-[3-(Benzo[d]isoxazol-3-yl)pyridine-2-yl]-2-(pyrimidin-2-yl)ethan-1-amine] |
| 8.9 µM | > 30 µM | CN(C)C(=O)CCc1cccc(C[C@H](N)c2ncccc2-c2noc3ccccc23)n1 [Example 21, (S)-3-(6-{2-Amino-2-[3-(benzo[d]isoxazol-3-yl)pyridine-2-ylethyl}priding-2-yl)-N,N-dimethylpropanamide hydrochloride] |
| 1.6 µM | 10.3 µM | Cc1ccc(Br)nc1C[C@H](N)c1ncccc1-c1noc2ccccc12 [Example 22, (S)-1-[3-(Benzo[d]isoxazol-3-yl)pyridine-2-yl]-2-(6-bromo-3-methylpyridine-2-yl)ethan-1-amine hydrochloride] |
| 1.7 µM | 9.5 µM | N[C@@H](Cc1ncccc1F)c1ncccc1-c1noc2ccccc12 [Example 23, (S)-1-[3-(Benzo[d]isoxazol-3-yl)pyridine-2-yl]-2-(3-fluoropyridine-2-yl)ethan-1-amine hydrochloride] |
| 4.2 µM |  | Cc1ccc(F)c(C[C@H](N)c2ncccc2-c2noc3ccccc23)n1 [Example 24, (S)-1-[3-(Benzo[d]isoxazol-3-yl)pyridine-2-yl]-2-(3-fluoro-6-methylpyridine-2-yl)ethan-1-amine hydrochloride] |
